Test results reported in patent publication US7235551B2, “1,5-disubstituted-3,4-dihydro-1h-pyrimido[4,5-d]pyrimidin-2-one compounds and their use in treating csbp/p38 kinase mediated diseases” (SmithKline Beecham Corporation, priority 2000, dated 2007).

| melting point [°C] | Structure (SMILES) |
| --- | --- |
| 210 to 211 | COc1nc(-c2ccc(F)cc2C)c2c(n1)N(c1c(F)cccc1F)C(=O)NC2 [Example 161, 1-(2,6-Difluorophenyl)-5-(4-fluoro-2-methylphenyl)-7-methoxy-3,4-dihydro-1H-pyrimido[4,5-d]pyrimidin-2-one] |
| 172 to 175 | Cc1cc(F)ccc1-c1nc(OCCO)nc2c1CNC(=O)N2c1c(F)cccc1F [Example 163, 1-(2,6-Difluorophenyl)-5-(4-fluoro-2-methylphenyl)-7-(2-hydroxyethoxy)-3,4-dihydro-1H-pyrimido[4,5-d]pyrimidin-2-one] |
| 221 to 224 | COc1nc(-c2ccccc2)c2c(n1)N(c1c(F)cccc1F)C(=O)NC2 [Example 166, 1-(2,6-Difluorophenyl)-5-phenyl-7-methoxy-3,4-dihydro-1H-pyrimido[4,5-d]pyrimidin-2-one] |
| 220 to 222 | COc1nc(-c2ccccc2)c2c(n1)N(c1ccccc1)C(=O)NC2 [Example 167, 1,5-diphenyl-7-methoxy-3,4-dihydro-1H-pyrimido[4,5-d]pyrimidin-2-one] |
